Experimental data: PMC7413254 (Nature Communications, 2020)
Changes are numbered by the printed parent chain.

Assays:
[1] = biological target: T1, PfCRT^Dd2 in C4^Dd2 parasites (Plasmodium falciparum, UniProt Q8IBZ9, A220S/I356T/K76T/M74I/N326S/N75E/Q271E/R371I); assay: P. falciparum H+-efflux assay (rate of DV alkalinisation after concanamycin A); assay type: cell-based; conditions: C4Dd2; for Effect on rate of DV alkalinisation / H+ leak (in words): test solute 10 μM
T1 construct: PfCRT also functions as a peptide transporter within its native environment of the DV membrane; expressed in transfected cells; host or cells: P. falciparum pfcrt transfectant line C4^Dd2 (saponin-isolated trophozoites)
T1 sequence (Q8IBZ9 1-424 M74I/N75E/K76T/A220S/Q271E/N326S/I356T/R371I): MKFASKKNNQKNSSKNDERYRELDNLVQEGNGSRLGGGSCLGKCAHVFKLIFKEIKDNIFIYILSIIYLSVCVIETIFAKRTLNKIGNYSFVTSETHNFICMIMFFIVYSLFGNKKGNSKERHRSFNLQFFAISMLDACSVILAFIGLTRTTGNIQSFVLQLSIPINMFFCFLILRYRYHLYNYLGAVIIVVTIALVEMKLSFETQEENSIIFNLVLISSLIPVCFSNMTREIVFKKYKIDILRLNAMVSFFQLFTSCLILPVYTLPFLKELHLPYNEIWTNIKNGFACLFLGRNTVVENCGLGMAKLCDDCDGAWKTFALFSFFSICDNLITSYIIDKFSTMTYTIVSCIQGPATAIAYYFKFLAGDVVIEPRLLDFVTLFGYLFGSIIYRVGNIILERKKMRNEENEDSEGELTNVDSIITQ

[2] = biological target: T2, PfCRT^3D7 in C2^GC03 parasites (Plasmodium falciparum, UniProt Q8IBZ9); assay: as above; assay type: cell-based; conditions: C2GC03; for Effect on rate of DV alkalinisation / H+ leak (in words): test solute 10 μM
T2 construct: PfCRT also functions as a peptide transporter within its native environment of the DV membrane; expressed in transfected cells; host or cells: P. falciparum pfcrt transfectant line C2^GC03 (saponin-isolated trophozoites)
T2 sequence (Q8IBZ9 1-424): T1 sequence (Q8IBZ9 1-424 M74I/N75E/K76T/A220S/Q271E/N326S/I356T/R371I) with I74M, E75N, T76K, S220A, E271Q, S326N, T356I, I371R

[3] = test system: C4^Dd2 versus C2^GC03 infected erythrocytes; assay: Peptidomic analysis, peptide levels in C4^Dd2 relative to C2^GC03 parasites (LC-MS); assay type: cell-based, Plasmodium falciparum
non-expressing oocytes = assay: [3H]VF-6 transport (efflux) from injected Xenopus oocytes; assay type: cell-based, Xenopus laevis; conditions: trans-inhibition, treatment 45 mM
Procedure: The characterisation of [^3H]VF-6 transport via 23 different field and laboratory-derived isoforms of PfCRT was undertaken with oocytes two days post-cRNA-injection (Figs. 3a–j, 4; Supplementary Fig. 2). The oocytes were injected with 25 nL of ND96 buffer (pH 5.5) supplemented with [^3H]VF-6 and unlabelled VF-6 to achieve estimated intracellular concentrations of 1.4 and 200 μM, respectively. Ten oocytes that had resealed at the injection site were transferred to a 5 mL polystyrene round bottom tube (In Vitro Technologies) and washed with 3.5 mL of ND96 buffer before being transferred to separate wells of a white 96-well plate (PerkinElmer). This treatment served to establish the amount of radioactivity within the oocytes immediately prior to the commencement of the transport assay. Another 10 resealed oocytes were transferred to a 5 mL tube and washed with 3.5 mL of ND96 buffer. The assay commenced with the addition of 100 μL of ND96 buffer and the oocytes were incubated at 27.5 °C for 1.5 h (unless specified otherwise; Fig. 3b). The assay was terminated by removing the reaction buffer with a pipette and washing the oocytes twice with 3.5 mL of ice-cold ND96 buffer. Each oocyte was transferred to a separate well of a white 96-well plate. The oocytes were lysed by the addition of 20 μL of 10% (w/v) SDS and overnight incubation at room temperature. The lysed oocyte was then combined with 150 μL of MicroScint-40 microscintillant (PerkinElmer), the plate covered with a TopSeal-A (PerkinElmer), and the radioactivity measured with a MicroBeta^2 microplate liquid scintillation analyser (PerkinElmer). VF-6 transport was calculated by subtracting the amount of radioactivity (measured in counts per minute) present within the oocytes at the end of the incubation from that measured in the oocytes sampled immediately before the commencement of the assay. The pH-dependence of transport (Fig. 3c) was determined by injecting the oocytes with [^3H]VF-6 suspended in 25 nL ND96 buffer adjusted to pH 5.0, 5.5, 6.0 or 7.0, which corresponded to the injection of 2.5–250 fmol of H^+. The dependence of [^3H]VF-6 transport on Na^+ or Cl^− was examined by injecting the oocytes with [^3H]VF-6 suspended in the control ND96 buffer (pH 5.5) or a version of this buffer that lacked either Na^+ or Cl^− (Supplementary Fig. 2). Na^+ was replaced with 96 mM of KCl and Cl^− was replaced with gluconate salts of Na^+ (NaC6H11O7; 96 mM), K^+ (KC6H11O7; 2 mM), Mg^2+ (MgC12H22O14; 1 mM) and Ca^2+ (CaC12H22O14; 1.8 mM). The dependence of peptide transport on Ca^2+ was determined by injecting the oocytes with [^3H]VF-6 suspended in ND96 buffers that contained different concentrations of Ca^2+ (0–5 mM; Supplementary Fig. 2). […] The dependence of PfCRT-mediated transport on the membrane potential was examined by using (1) Na^+ ionophore III in conjunction with the Na^+ gradients listed in Supplementary Data 7 and (2) Cl^− ionophore III in conjunction with the Cl^− gradients listed in Supplementary Data 7 to clamp the membrane potential of the oocyte from −80 to +80 mV. […] The kinetic parameters for VF-6 transport via different isoforms of PfCRT (Figs. 3e and 4a) were determined in SigmaPlot Windows Version 11.0 by a least-squares fit of the Michaelis–Menten equation to the data.
A subset of assays measured the ability of solutes known to interact with PfCRT to either cis-inhibit, trans-inhibit or trans-stimulate [^3H]VF-6 transport. These experiments involved adding these solutes to either the cis- or trans-side of the membrane relative to [^3H]VF-6. […] At least five independent experiments were performed (on different days and using oocytes from different frogs), and within each experiment measurements were made from ten oocytes per treatment.

[4] = Peptides tested before peptidomic data was obtained

Row | Molecule | Effect on rate of DV alkalinisation / H+ leak (in words) [1] | Effect on rate of DV alkalinisation / H+ leak (in words) [2] | [3H]VF-6 transport, non-expressing oocytes (% PfCRT3D7 control) (non-expressing oocytes; Experiment 1) | [3H]VF-6 transport, non-expressing oocytes (% PfCRT3D7 control) (non-expressing oocytes; Experiment 2) | [3H]VF-6 transport, non-expressing oocytes (% PfCRT3D7 control) (non-expressing oocytes; Experiment 3) | [3H]VF-6 transport, non-expressing oocytes (% PfCRT3D7 control) (non-expressing oocytes; Experiment 4) | [3H]VF-6 transport, non-expressing oocytes (% PfCRT3D7 control) (non-expressing oocytes; Experiment 5) | other results
1 | CCN(CC)CCCC(C)Nc1ccnc2cc(Cl)ccc12 (stereo not shown) [CQ, chloroquine, reference compound] | increase | decrease slightly | – | – | – | – | – | –
2 | N[C@@H](Cc1c[nH]cn1)C(=O)O [L-histidine] | without effect | without effect | – | – | – | – | – | –
3 | CC(C)(C)NC(=O)[C@@H]1C[C@@H]2CCCC[C@@H]2CN1C[C@@H](O)[C@H](Cc1ccccc1)NC(=O)[C@H](CC(N)=O)NC(=O)c1ccc2ccccc2n1 [Saquinavir, saquinavir, reference compound] | increased the rate of DV alkalinisation | increased the rate of DV alkalinisation | – | – | – | – | – | Maximum rate of peptide mimic-induced DV alkalinization ([1]; mean ± SEM, n = 5, SEM): 0.011 ±0.003 fluorescence ratio/s; Maximum rate of peptide mimic-induced DV alkalinization ([2]; mean ± SEM, n = 5, SEM): 0.039 ±0.002 fluorescence ratio/s
4 | DPVN [DN-4] | – | – | – | – | – | – | – | Assignment as substrate or not a substrate based on accumulation ratios from peptidomic data ([3]; Peptides tested after peptidomic data was obtained): substrate
5 | DPVN [VF-6-derived peptide] | – | – | 3.68 % PfCRT3D7 control | 3.18 % PfCRT3D7 control | 3.95 % PfCRT3D7 control | 3.69 % PfCRT3D7 control | 3.36 % PfCRT3D7 control | –
6 | DPVNF [VF-6-derived peptide] | – | – | 3.25 % PfCRT3D7 control | 3.26 % PfCRT3D7 control | 3.78 % PfCRT3D7 control | 3.25 % PfCRT3D7 control | 3.35 % PfCRT3D7 control | –
7 | PENF [PEF-4] | – | – | – | – | – | – | – | Assignment as substrate or not a substrate based on accumulation ratios from peptidomic data [3, 4]: substrate
8 | PHFD [PD-4] | – | – | – | – | – | – | – | Assignment as substrate or not a substrate based on accumulation ratios from peptidomic data [3, 4]: substrate
9 | PVNF [VF-6-derived peptide] | – | – | 4.26 % PfCRT3D7 control | 4.58 % PfCRT3D7 control | 4.28 % PfCRT3D7 control | 4.2 % PfCRT3D7 control | 3.58 % PfCRT3D7 control | –
10 | VDPVN [VF-6-derived peptide] | – | – | 3.62 % PfCRT3D7 control | 3.95 % PfCRT3D7 control | 3.26 % PfCRT3D7 control | 3.58 % PfCRT3D7 control | 3.77 % PfCRT3D7 control | –
